These results are taken from ChEMBL document CHEMBL1151636, “Atractyloside, toxic compound from Wedelia glauca” (J Nat Prod, 1984).

SMILES strings stand for the structures.

For the data set, the system named is Mus musculus. Description: Toxicity in ip dosed mouse assessed as respiratory arrest. Type of data set: organism-based. The following applies: in vivo.

For `C=C1[C@@H]2CCC3[C@@](CC[C@@H]4[C@H](C(=O)O)C[C@@H](O[C@@H]5O[C@H](CO)[C@@H](OS(=O)(=O)[O-])[C@H](OS(=O)(=O)[O-])[C@H]5OC(=O)CC(C)C)C[C@@]34C)(C2)[C@@H]1O.[K+].[K+]` (stereo partly specified) [ATRACTYLOSIDE], the Activity entry is “Toxic”.
